Measurements reported in US20220249522A1, “Hypoxia Targeting Compositions and Combinations Thereof with a PARP Inhibitor and Methods of Use Thereof” (The Board of Trustees of the Leland Stanford Junior …, priority 2018, published 2022).

Experiments:
[1] = tested on: PARP enzyme activity in OVCAR8 xenografts; test: PAR levels in tumor lysates of xenografts (western blot); format: in vivo; settings: olaparib 50 mg/kg daily intraperitoneal for 2 days
Experimental: OVCAR8 xenografts were established by subcutaneous injection of tumor cells in serum-free media/matrigel mix. Once tumors reached a size of about 100 mm^3, animals were divided into the following groups: (i) vehicle (10% 2-hydroxy-propyl-β-cyclodextrin/PBS) once a day via intraperitoneal injection (ii) olaparib (50 mg/kg) administered daily via intraperitoneal injection for 2 days. 3 animals were used per group.
Following completion of each treatment regimen, tumors were collected for analysis (FIG. 7A). PARP enzyme activity (measured via formation of PAR) was evaluated using western blot analysis.

OVCAR8 cell line = test: Colony formation survival after 7 days PARP inhibitor in 21%, 5% or 2% oxygen; format: cell-based; settings: for survival in the presence of PARP inhibitor: olaparib 1 μM or talazoparib 10 nM; for survival fraction versus correspondingly treated samples at 21% oxygen: 2% oxygen; for survival fraction versus correspondingly treated samples at 21% oxygen / survival fraction: olaparib 0-1 μM or talazoparib 0-10 nM; for survival fraction: 21% oxygen
Excerpt: (§1) FIGS. 1A-1D show plots of survival fraction versus olaparib (AZD-2281) concentration for SUM149 (FIG. 1A), CAPAN-1 (FIG. 1B), HT1080 (FIG. 1C), and OVCAR8 (FIG. 1D) cell lines cultured in 21% oxygen or 2% oxygen conditions.
(§2) FIGS. 2A-2D show plots of survival fraction versus talazoparib (BMN 673) concentration for SUM149 (FIG. 2A), CAPAN-1 (FIG. 2B), HT1080 (FIG. 2C), and OVCAR8 (FIG. 2D) cell lines cultured in 21% oxygen or 2% oxygen conditions.
(§3) Specifically, a series of cell lines deficient for HR were treated with PARP inhibitors (olaparib or talazoparib (BMN 673)) for 7 days in 21% oxygen (representative of normoxic conditions) or 2% oxygen (representative of hypoxic conditions). In duplicates, 250-2000 cells of each cell line were seeded in 6-well plates and treated with varying concentrations of olaparib (0-1 μM) or talazoparib (0-10 nM). At the end of the treatment, media from each well was changed to drug-free media and cells were incubated to allow for formation of colonies. At the end of each incubation, colonies were fixed in 70% ethanol and stained with Crystal Violet to facilitate counting of colonies. At least 3 biological replicates were performed for each condition tested. The HR deficient cell lines treated were SUM149 (a BRAC1 mutant, triple negative breast cancer cell line), CAPAN-1 (a BRAC2 mutant, pancreatic cancer cell line), HT1080 (an IDH mutant, fibrosarcoma cell line), and OVCAR8 (a hypermethylated BRAC1 promoter, ovarian serous adenocarcinoma (high grade) cell line).
These observations were further evaluated using the OVCAR8 cell line samples at 21% oxygen, 5% oxygen, and 2% oxygen concentrations. Specifically, OVCAR8 cell line samples were cultured in 21% oxygen, 5% oxygen, or 2% oxygen conditions and were treated with a vehicle, olaparib (1 μM), or talazoparib (BMN 673; 10 nM) for 7 days. At the end of the treatment, media from each well was changed to a drug-free media and cells were incubated to allow for formation colonies.

[2] = tested on: PARP enzyme activity in HT1080 cells; test: Western blot analysis of PAR formation; format: cell-based; settings: olaparib 1 μM or talazoparib 10 nM, 7 days
Experimental: (§4) FIGS. 5A and 5B show western blot analyzes of the levels of poly(ADP-ribose) (PAR) in OVCAR8 cells (FIG. 5A) and HT1080 cells (FIG. 5B) following treatment with a vehicle, olaparib (AZD-2281; 1 μM), or talazoparib (BMN 673; 10 nM) cultured in 21% oxygen or 2% oxygen conditions.
(§5) Western blot analysis of PAR formation was conducted in OVCAR8 cells and HT1080 cells following treatment with a vehicle, olaparib (AZD-2281; 1 μM), or talazoparib (BMN 673; 10 nM) cultured in 21% oxygen or 2% oxygen conditions for 7 days. PAR levels in cell lysates were quantified using western blot.

[3] = tested on: PARP enzyme activity in OVCAR8 cells; test: Western blot analysis of PAR formation; format: cell-based; settings: olaparib 1 μM or talazoparib 10 nM, 7 days
Experimental: as §4, §5

HT1080 cell line = test: Colony formation survival after 7 days PARP inhibitor in 21% or 2% oxygen; format: cell-based; settings: olaparib 0-1 μM or talazoparib 0-10 nM; for survival fraction versus correspondingly treated samples at 21% oxygen: 2% oxygen; for survival fraction: 21% oxygen
Excerpt: as §1, §2, §3

SUM149 cell line = test: as above; format: cell-based; settings: olaparib 0-1 μM or talazoparib 0-10 nM; for survival fraction versus correspondingly treated samples at 21% oxygen: 2% oxygen; for survival fraction: 21% oxygen
Excerpt: as §1, §2, §3

CAPAN-1 cell line = test: as above; format: cell-based; settings: olaparib 0-1 μM or talazoparib 0-10 nM; for survival fraction versus correspondingly treated samples at 21% oxygen: 2% oxygen; for survival fraction: 21% oxygen
Excerpt: as §1, §2, §3

[4] = tested on: breast patient-derived tumor xenografts (PDTXs); test: Olaparib efficacy in breast PDTX models in relation to hypoxia score; format: in vivo; settings: archived PDTX data of Bruna et al; hypoxia signature of Buffa et al
Excerpt: FIGS. 7A-7D show a schematic of diagram of olaparib treatment in OVCAR8 xenografts (FIG. 7A), a Western blot analysis of PAR levels in tumor lysates (FIG. 7B), immunohistochemical staining of vehicle- and olaparib-treated tumors (FIG. 7C), and sensitivity to olaparib inversely correlates with hypoxia in Breast PDX models (FIG. 7D).
Efficacy of olaparib in a range of patient-derived tumor xenografts (PDTXs) were previously tested in vivo by Bruna et al and the results archived in a biobank (http://caldaslab.cruk.cam.ac.uk/bcape) (see Bruna et al. Cell 167, 260-274 (2016), the disclosure of which is incorporated herein by reference). The efficacy of olaparib in these breast PDTX models in relation to their hypoxia levels was analyzed. […] (Buffa et al. Br J Cancer 102, 428-35 (2010), the disclosure of which is incorporated herein by reference). This is in accordance with the data from in vitro studies.

SUM149 cells [5] = test: Tirapazamine x PARPi dose matrix, survival and synergy analysis (Combenefit); format: cell-based; settings: combination with PARPi (olaparib and BMN673)
Experimental: FIGS. 9A and 9B show survival percentage of SUM149 cells treated with olaparib (0.001-10 μM) and TPZ (0.1-50 μM) or BMN673 (0.01-20 nM) and TPZ (0.1-50 μM) (FIG. 9A), and HSA synergism analysis of SUM149 cells treated with varying doses of TPZ and olaparib or TPZ and BMN673 (FIG. 9B).
(§6) The effect of combining a hypoxia activated prodrug with PARPi on cellular toxicity was assessed. […] Combenefit; a validated, open-access software program was used to analyze the data and quantify possible synergistic or antagonistic drug interactions, and relative cell kill data are presented as survival curves (FIG. 8A& 9A), while synergy scores are presented in matrix format (FIG. 8B& 9B). […] Examples are highlighted with the red squares in the matrix plots. In OVCAR8 cells for example, tirapazamine doses required to achieve a synergy score of 30-40 when cells are treated with 10 nM BMN673 are 0.5-1 μM in hypoxia and 5-10 μM in normoxia.

OVCAR8 cells [6] = test: as above; format: cell-based; settings: for tirapazamine doses required to achieve a synergy score of 30-40: with 10 nM BMN673; for tirapazamine dose required for a synergy score of 20-30: with 0.1 μM olaparib
Experimental: FIGS. 8A and 8B show survival percentage of OVCAR8 cells treated with olaparib (0.001-10 μM) and TPZ (0.1-50 μM) or BMN673 (0.01-20 nM) and TPZ (0.1-50 μM) (FIG. 8A), and HSA synergism analysis of OVCAR8 cells treated with varying doses of TPZ and olaparib or TPZ and BMN673 (FIG. 8B).
as §6

[7] = tested on: non-small cell lung cancer and head and neck cancer; settings: background statement; cited from earlier work
SUM149 cells [8] = test: Survival fraction after 96 hours tirapazamine, PARP inhibitor or combination; format: cell-based; settings: tirapazamine alone 0.1 μM or 1 μM, 21% or 2% oxygen
Experimental: FIGS. 11A-11C show histograms of survival fractions of SUM149 cells treated with a vehicle, tirapazamine, olaparib, olaparib plus tirapazamine, talazoparib, or talazoparib plus tirapazamine.
(§7) The in vitro efficacy of single agent tirapazamine or a single agent PARP inhibitor (olaparib or talazoparib) or combinations of tirapazamine and a PARP inhibitor (olaparib or talazoparib) was assessed in HR deficient cell lines (OVCAR8 and SUM149) at 21% oxygen and 2% oxygen concentrations. Specifically, OVCAR8 cells were seeded and treated with one of the following for 96 hours in 21% oxygen or 2% oxygen concentrations: (i) vehicle; (ii) tirapazamine (TPZ; 0.1 μM or 1 μM); (iii) olaparib (OL; 1 μM); (iv) tirapazamine (at concentrations above) plus olaparib (1 μM); (v) talazoparib (BMN; 10 nM); or tirapazamine (at concentrations above) plus talazoparib (10 nM). […] At the end of the treatment, media from each sample was changed to a drug-free media and cells were incubated to allow for formation colonies before survival fraction was determined.

OVCAR8 cells [9] = test: as above; format: cell-based; settings: tirapazamine alone 0.1 μM or 1 μM, 21% or 2% oxygen
Experimental: FIGS. 10A-10C show histograms of survival fractions of OVCAR8 cells treated with a vehicle, tirapazamine, olaparib, olaparib plus tirapazamine, talazoparib, or talazoparib plus tirapazamine.
as §7

[10] = 2% oxygen compared to 5% oxygen
[11] = 2% oxygen compared to 21% oxygen
[12] = 5% oxygen compared to 21% oxygen

O=C(c1cc(Cc2n[nH]c(=O)c3ccccc23)ccc1F)N1CCN(C(=O)C2CC2)CC1 [olaparib]
PAR formation in xenograft samples [1]: no evidence of PAR formation
survival in the presence of PARP inhibitor (OVCAR8 cell line; [10]): significantly improved survival
survival in the presence of PARP inhibitor (OVCAR8 cell line; [11]): significantly improved survival
survival fraction versus correspondingly treated samples at 21% oxygen (OVCAR8 cell line): higher survival fractions
survival in the presence of PARP inhibitor (OVCAR8 cell line; [12]): significantly improved survival
survival fraction (OVCAR8 cell line): reduced
PAR formation ([2]; 2% oxygen): reduced PAR formation
PAR formation ([2]; 21% oxygen): reduced PAR formation
PAR formation ([3]; 2% oxygen): reduced PAR formation
PAR formation ([3]; 21% oxygen): reduced PAR formation
survival fraction versus correspondingly treated samples at 21% oxygen (HT1080 cell line): higher survival fractions
survival fraction (HT1080 cell line): reduced
survival fraction versus correspondingly treated samples at 21% oxygen (SUM149 cell line): higher survival fractions
survival fraction (SUM149 cell line): reduced
survival fraction versus correspondingly treated samples at 21% oxygen (CAPAN-1 cell line): higher survival fractions
survival fraction (CAPAN-1 cell line): reduced
correlation between hypoxia score of the tumors and their sensitivity to olaparib therapy [4]: strong inverse correlation

Cn1ncnc1[C@H]1c2n[nH]c(=O)c3cc(F)cc(c23)N[C@@H]1c1ccc(F)cc1 [talazoparib]
survival in the presence of PARP inhibitor (OVCAR8 cell line; [10]): significantly improved survival
survival in the presence of PARP inhibitor (OVCAR8 cell line; [11]): significantly improved survival
survival fraction versus correspondingly treated samples at 21% oxygen (OVCAR8 cell line): higher survival fractions
survival in the presence of PARP inhibitor (OVCAR8 cell line; [12]): significantly improved survival
survival fraction (OVCAR8 cell line): reduced
PAR formation ([2]; 2% oxygen): reduced PAR formation
PAR formation ([2]; 21% oxygen): reduced PAR formation
PAR formation ([3]; 2% oxygen): reduced PAR formation
PAR formation ([3]; 21% oxygen): reduced PAR formation
survival fraction versus correspondingly treated samples at 21% oxygen (HT1080 cell line): higher survival fractions
survival fraction (HT1080 cell line): reduced
survival fraction versus correspondingly treated samples at 21% oxygen (SUM149 cell line): higher survival fractions
survival fraction (SUM149 cell line): reduced
survival fraction versus correspondingly treated samples at 21% oxygen (CAPAN-1 cell line): higher survival fractions
survival fraction (CAPAN-1 cell line): reduced

Nc1n[n+]([O-])c2ccccc2[n+]1[O-] [tirapazamine, 3-amino-1,2,4-benzotriazine-1,4-dioxide]
fold lower doses of tirapazamine required under hypoxic conditions to achieve similar or even higher synergy scores to normoxic conditions (SUM149 cells [5]): 10 fold
fold lower doses of tirapazamine required under hypoxic conditions to achieve similar or even higher synergy scores to normoxic conditions (OVCAR8 cells [6]; combination with PARPi (olaparib and BMN673)): 10 fold
tirapazamine doses required to achieve a synergy score of 30-40 (OVCAR8 cells [6]; hypoxia): 0.5 to 1 µM
tirapazamine doses required to achieve a synergy score of 30-40 (OVCAR8 cells [6]; normoxia): 5 to 10 µM
tirapazamine dose required for a synergy score of 20-30 (OVCAR8 cells [6]; hypoxia): 1 µM
tirapazamine dose required for a synergy score of 20-30 (OVCAR8 cells [6]; normoxia): 10 µM
efficacy in clinical trials [7]: lack of efficacy
cell survival fraction as compared to the vehicle (SUM149 cells [8]): did not have a significant effect
cell survival fraction as compared to the vehicle (OVCAR8 cells [9]): did not have a significant effect
